According to ChEMBL document CHEMBL5042478, “Design, Synthesis, and Evaluation of VHL-Based EZH2 Degraders to Enhance Therapeutic Activity against Lymphoma” (J Med Chem, 2021):
Activity calls are given as the source filed them. No cut-off for these calls is given here.

What was measured:
[1] = biological target: T1, von Hippel-Lindau disease tumor suppressor/Histone-lysine N-methyltransferase EZH2 (Homo sapiens) (UniProt Q15910+P40337); assay: Protac activity at VHL/EZH2 in human 22Rv1 cells assessed as reduction in EZH2 level at 2 uM preincubated with VH032 for 2 hrs followed by compound addition and measured after 24 hrs by Western blot analysis; type: cell-based; settings: time 26.0 hrs
T1 sequence (P40337 whole entry, looked up): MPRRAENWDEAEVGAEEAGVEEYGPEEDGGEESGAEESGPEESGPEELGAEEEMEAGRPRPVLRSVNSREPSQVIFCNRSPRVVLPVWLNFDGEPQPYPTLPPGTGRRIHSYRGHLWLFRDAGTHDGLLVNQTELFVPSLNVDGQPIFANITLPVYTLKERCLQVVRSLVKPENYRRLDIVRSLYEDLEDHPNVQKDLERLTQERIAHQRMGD
T1 sequence (Q15910 whole entry, looked up): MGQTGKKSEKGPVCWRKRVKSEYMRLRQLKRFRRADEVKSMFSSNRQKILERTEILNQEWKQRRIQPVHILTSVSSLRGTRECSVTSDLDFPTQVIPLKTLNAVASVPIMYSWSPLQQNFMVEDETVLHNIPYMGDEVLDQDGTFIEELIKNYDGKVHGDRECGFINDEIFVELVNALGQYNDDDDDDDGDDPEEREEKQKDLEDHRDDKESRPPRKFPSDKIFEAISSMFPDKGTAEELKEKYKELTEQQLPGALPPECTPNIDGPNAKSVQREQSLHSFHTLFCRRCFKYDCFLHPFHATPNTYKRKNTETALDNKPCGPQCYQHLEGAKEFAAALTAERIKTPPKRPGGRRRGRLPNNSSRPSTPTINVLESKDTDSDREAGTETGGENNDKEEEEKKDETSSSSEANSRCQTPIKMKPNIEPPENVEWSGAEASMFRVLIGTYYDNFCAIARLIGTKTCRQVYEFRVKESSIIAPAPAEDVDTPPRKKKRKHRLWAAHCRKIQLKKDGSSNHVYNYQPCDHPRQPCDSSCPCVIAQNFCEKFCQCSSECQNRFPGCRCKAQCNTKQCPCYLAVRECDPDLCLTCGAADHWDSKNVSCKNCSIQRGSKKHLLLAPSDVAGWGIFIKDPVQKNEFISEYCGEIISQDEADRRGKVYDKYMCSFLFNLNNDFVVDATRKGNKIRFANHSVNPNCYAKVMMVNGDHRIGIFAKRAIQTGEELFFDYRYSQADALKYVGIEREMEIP

[2] = biological target: T1, von Hippel-Lindau disease tumor suppressor/Histone-lysine N-methyltransferase EZH2 (Homo sapiens); assay: Protac activity at VHL/EZH2 in human 22Rv1 cells assessed as reduction in H3K27me3 level at 1 uM incubated for 48 hrs by Western blot analysis; type: cell-based
[3] = biological target: T1, von Hippel-Lindau disease tumor suppressor/Histone-lysine N-methyltransferase EZH2 (Homo sapiens); assay: Protac activity at VHL/EZH2 in human 22Rv1 cells assessed as EZH2 protein abundance after 24 hrs by Western blot analysis; type: cell-based; settings: dose 1-6 µM
[4] = biological target: von Hippel-Lindau disease tumor suppressor/Histone-lysine N-methyltransferase EZH1 (Homo sapiens) (UniProt Q92800+P40337); assay: Protac activity at VHL/EZH1 in human 22Rv1 cells assessed as EZH1 protein abundance at 1 to 6 uM after 24 hrs by Western blot analysis; type: cell-based; settings: dose 1-6 µM
von Hippel-Lindau disease tumor suppressor/Histone-lysine N-methyltransferase EZH1 (Homo sapiens), sequence (P40337 whole entry, looked up): as the sequence (P40337 whole entry, looked up) above
von Hippel-Lindau disease tumor suppressor/Histone-lysine N-methyltransferase EZH1 (Homo sapiens), sequence (Q92800 whole entry, looked up): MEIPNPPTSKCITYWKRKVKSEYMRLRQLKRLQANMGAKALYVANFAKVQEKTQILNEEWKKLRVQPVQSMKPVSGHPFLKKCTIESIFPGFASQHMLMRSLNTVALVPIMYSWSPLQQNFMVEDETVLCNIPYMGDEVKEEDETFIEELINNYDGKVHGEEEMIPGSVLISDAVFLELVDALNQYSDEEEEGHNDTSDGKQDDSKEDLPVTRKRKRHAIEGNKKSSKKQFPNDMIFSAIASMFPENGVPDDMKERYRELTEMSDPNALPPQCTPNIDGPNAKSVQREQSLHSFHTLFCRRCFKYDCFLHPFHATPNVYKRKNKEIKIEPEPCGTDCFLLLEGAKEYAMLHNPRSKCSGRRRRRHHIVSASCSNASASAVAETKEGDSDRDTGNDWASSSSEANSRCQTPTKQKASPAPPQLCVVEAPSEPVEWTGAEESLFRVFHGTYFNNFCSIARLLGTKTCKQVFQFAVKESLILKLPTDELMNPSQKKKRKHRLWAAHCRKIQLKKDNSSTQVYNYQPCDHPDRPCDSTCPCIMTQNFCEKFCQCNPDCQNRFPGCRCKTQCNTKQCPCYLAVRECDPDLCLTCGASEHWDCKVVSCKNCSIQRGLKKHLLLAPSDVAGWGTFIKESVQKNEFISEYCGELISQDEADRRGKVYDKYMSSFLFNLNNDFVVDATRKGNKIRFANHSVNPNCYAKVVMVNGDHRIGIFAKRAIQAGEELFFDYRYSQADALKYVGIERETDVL

[5] = biological target: T1, von Hippel-Lindau disease tumor suppressor/Histone-lysine N-methyltransferase EZH2 (Homo sapiens); assay: Protac activity at VHL/EZH2 in human 22Rv1 cells assessed as maximum degradation efficacy at 2 uM by Western blot analysis relative to control; type: cell-based
[6] = biological target: T2, von Hippel-Lindau disease tumor suppressor/Polycomb protein EED (Homo sapiens) (UniProt O75530+P40337); assay: Protac activity at VHL/EED in human 22Rv1 cells assessed as reduction in EED level at 2 uM incubated for 24 hrs by Western blot analysis; type: cell-based
T2 sequence (O75530 2-441 limits assumed): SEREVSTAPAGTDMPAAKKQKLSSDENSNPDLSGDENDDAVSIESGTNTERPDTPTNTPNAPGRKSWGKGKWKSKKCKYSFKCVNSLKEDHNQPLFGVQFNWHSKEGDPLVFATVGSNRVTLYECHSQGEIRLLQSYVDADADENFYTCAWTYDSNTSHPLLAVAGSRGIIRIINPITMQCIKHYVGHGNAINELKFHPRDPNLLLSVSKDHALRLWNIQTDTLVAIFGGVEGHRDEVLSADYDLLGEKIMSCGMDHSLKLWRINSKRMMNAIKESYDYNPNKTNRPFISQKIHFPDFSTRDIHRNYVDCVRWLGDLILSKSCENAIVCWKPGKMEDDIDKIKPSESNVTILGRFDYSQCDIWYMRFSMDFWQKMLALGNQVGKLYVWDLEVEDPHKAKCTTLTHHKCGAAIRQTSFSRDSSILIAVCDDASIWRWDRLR
T2 sequence (P40337 whole entry partner): as the sequence (P40337 whole entry, looked up) above

[7] = biological target: T3, von Hippel-Lindau disease tumor suppressor/Polycomb protein SUZ12 (Homo sapiens) (UniProt Q15022+P40337); assay: Protac activity at VHL/SUZ12 in human 22Rv1 cells assessed as reduction in SUZ12 level at 2 uM incubated for 24 hrs by Western blot analysis; type: cell-based
T3 sequence (P40337 whole entry, looked up): as above
T3 sequence (Q15022 whole entry, looked up): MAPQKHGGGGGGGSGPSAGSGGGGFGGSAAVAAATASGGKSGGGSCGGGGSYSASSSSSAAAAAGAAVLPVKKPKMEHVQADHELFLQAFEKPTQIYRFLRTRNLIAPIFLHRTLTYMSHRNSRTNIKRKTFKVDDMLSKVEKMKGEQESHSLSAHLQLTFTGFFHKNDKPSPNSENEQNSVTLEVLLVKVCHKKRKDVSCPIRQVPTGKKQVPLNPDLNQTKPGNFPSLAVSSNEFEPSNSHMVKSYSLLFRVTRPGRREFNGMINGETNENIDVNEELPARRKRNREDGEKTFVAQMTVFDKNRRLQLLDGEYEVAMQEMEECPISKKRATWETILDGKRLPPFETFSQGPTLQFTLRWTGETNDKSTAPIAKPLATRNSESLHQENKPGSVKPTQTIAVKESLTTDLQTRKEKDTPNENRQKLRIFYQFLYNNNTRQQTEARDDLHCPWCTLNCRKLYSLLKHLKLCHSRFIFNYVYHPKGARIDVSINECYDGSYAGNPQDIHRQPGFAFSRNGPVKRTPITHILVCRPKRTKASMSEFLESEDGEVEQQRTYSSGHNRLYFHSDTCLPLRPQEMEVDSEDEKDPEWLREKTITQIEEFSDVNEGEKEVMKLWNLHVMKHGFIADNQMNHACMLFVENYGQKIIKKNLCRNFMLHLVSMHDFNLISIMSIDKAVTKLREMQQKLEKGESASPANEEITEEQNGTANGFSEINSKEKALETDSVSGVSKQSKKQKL

[8] = biological target: T1, von Hippel-Lindau disease tumor suppressor/Histone-lysine N-methyltransferase EZH2 (Homo sapiens); assay: Protac activity at VHL/EZH2 in VHL knockdown human 22Rv1 cells assessed as reduction in EZH2 level at 2 uM for 24 hrs by Western blot analysis; type: cell-based
[9] = biological target: T1, von Hippel-Lindau disease tumor suppressor/Histone-lysine N-methyltransferase EZH2 (Homo sapiens); assay: Protac activity at VHL/EZH2 in human 22Rv1 cells assessed as increase in EZH2 ubiquitination at 2 uM for 12 hrs by immunoprecipitation based Western blot analysis; type: cell-based
SU-DHL-2 = assay: Antiproliferative activity against human SUDHL2 cells assessed as reduction in cell viability at 0.01 to 10 uM measured after 5 days by MTS assay; type: functional, cell-based; settings: dose 0.01-10 µM, time 5.0 day
SUD4 = assay: Antiproliferative activity against human SU-DHL-4 cells assessed as reduction in cell viability at 0.01 to 10 uM measured after 5 days by MTS assay; type: functional, cell-based; settings: dose 0.01-10 µM, time 5.0 day
SU-DHL-6 [10] = assay: Antiproliferative activity against human SU-DHL-6 cells assessed as reduction in cell viability at 0.01 to 10 uM measured after 5 days by MTS assay; type: functional, cell-based; settings: dose 0.01-10 µM, time 5.0 day
[11] = biological target: Histone-lysine N-methyltransferase EZH2 (Homo sapiens) (UniProt Q15910); assay: Induction of EZH2 degradation in human SUDHL2 cells at 0.1 to 5 uM after 24 hrs by Western blot analysis; type: cell-based; settings: dose 0.1-5 µM
Histone-lysine N-methyltransferase EZH2 (Homo sapiens), sequence (Q15910 whole entry, looked up): as the sequence (Q15910 whole entry, looked up) above

SU-DHL-6 [12] = assay: Induction of cell cycle arrest in human SU-DHL-6 cells assessed as accumulation of cells at sub G1 phase after 24 hrs by flow cytometry; type: functional, cell-based; settings: dose 1-5 µM
SU-DHL-6 [13] = assay: Induction of apoptosis in human SU-DHL-6 cells assessed as increase in cleaved PARP level at 1 to 5 uM incubated for 48 hrs by Western blot analysis; type: functional, cell-based; settings: dose 1-5 µM
SU-DHL-6 [14] = assay: Induction of apoptosis in human SU-DHL-6 cells assessed as increase in cleaved capase-3 level at 1 to 5 uM incubated for 48 hrs by Western blot analysis; type: functional, cell-based; settings: dose 1-5 µM
SU-DHL-6 [15] = assay: Induction of apoptosis in human SU-DHL-6 cells at 1 to 5 uM incubated for 48 hrs by Annexin V/propidium iodide staining based flow cytometry; type: functional, cell-based; settings: dose 1-5 µM
[16] = biological target: T1, von Hippel-Lindau disease tumor suppressor/Histone-lysine N-methyltransferase EZH2 (Homo sapiens); assay: Protac activity at VHL/EZH2 in human 22Rv1 cells assessed as reduction in H3K27me3 level after 24 hrs by Western blot analysis; type: cell-based; settings: dose 1-6 µM
[17] = biological target: T3, von Hippel-Lindau disease tumor suppressor/Polycomb protein SUZ12 (Homo sapiens); assay: Protac activity at VHL/SUZ12 in human SUDHL2 cells assessed as reduction in SUZ12 level at 2 uM incubated for 24 hrs by Western blot analysis; type: cell-based
[18] = biological target: T2, von Hippel-Lindau disease tumor suppressor/Polycomb protein EED (Homo sapiens); assay: Protac activity at VHL/EED in human SUDHL2 cells assessed as reduction in EED level at 2 uM incubated for 24 hrs by Western blot analysis; type: cell-based
[19] = biological target: T1, von Hippel-Lindau disease tumor suppressor/Histone-lysine N-methyltransferase EZH2 (Homo sapiens); assay: Protac activity at VHL/EZH2 in human 22Rv1 cells assessed as EZH2 degradation at 2 uM after 2 to 4 hrs by Western blot analysis; type: cell-based; settings: time 2-4 hrs
SU-DHL-6 [20] = assay: Induction of cell cycle arrest in human SU-DHL-6 cells after 24 hrs by flow cytometry; type: functional, cell-based; settings: dose 1-5 µM
[21] = biological target: T1, von Hippel-Lindau disease tumor suppressor/Histone-lysine N-methyltransferase EZH2 (Homo sapiens); assay: Protac activity at VHL/EZH2 in human 22Rv1 cells assessed as reduction in EZH2 level at 1 uM incubated for 48 hrs by Western blot analysis; type: cell-based
SU-DHL-6 [22] = assay: Antitumor activity against human SU-DHL-6 cells xenografted in nude Balb/c mouse assessed as reduction in tumor volume at 80 mg/kg, ip administered for 6 times weekly for 3 weeks; type: functional, organism-based
SU-DHL-6 [23] = assay: Antitumor activity against human SU-DHL-6 cells xenografted in nude Balb/c mouse assessed as reduction in EZH2 level in tumor tissue at 80 mg/kg, ip administered for 6 times weekly for 3 weeks by Western blot analysis; type: functional, organism-based
SU-DHL-6 [24] = assay: Antitumor activity against human SU-DHL-6 cells xenografted in nude Balb/c mouse assessed as reduction in H3K27me3 level in tumor tissue at 80 mg/kg, ip administered for 6 times weekly for 3 weeks by Western blot analysis; type: functional, organism-based
SU-DHL-6 [25] = assay: Antitumor activity against human SU-DHL-6 cells xenografted in Balb/c mouse assessed as […] in tumor tissue at 80 mg/kg, ip administered for 6 times weekly for 3 weeks by Ki67 staining based immunohistochemistry; type: functional, organism-based
SU-DHL-6 [26] = assay: Antitumor activity against human SU-DHL-6 cells xenografted in Balb/c mouse assessed as inhibition of tumor growth at 80 mg/kg, ip administered for 6 times weekly for 3 weeks by Ki67 staining based immunohistochemistry; type: functional, organism-based
DLBCL [27] = assay: Antitumor activity against patient derived human DLBCL cells assessed as EZH2 degradation for 24 hrs by western blot analysis; type: functional, cell-based; settings: dose 0.1-5 µM
DLBCL [28] = assay: Antitumor activity against patient derived human DLBCL cells assessed as increase in capase-3 activity at 1 to 7 uM incubated for 48 hrs by western blot analysis; type: functional, cell-based; settings: dose 1-7 µM
DLBCL [29] = assay: Antitumor activity against patient derived human DLBCL cells assessed as reduction in cell viability at 1 to 7 uM incubated for 48 hrs by adenosine triphosphate assay; type: functional, cell-based; settings: dose 1-7 µM
DLBCL [30] = assay: Antitumor activity against patient derived human DLBCL cells assessed as increase in capase-6 activity at 1 to 7 uM incubated for 48 hrs by western blot analysis; type: functional, cell-based; settings: dose 1-7 µM
SU-DHL-6 [31] = assay: Antitumor activity against human SU-DHL-6 cells xenografted in nude Balb/c mouse assessed as reduction in tumor volume at 42.5 mg/kg, ip administered for 6 times weekly for 3 weeks; type: functional, organism-based
[32] = Toxicity in nude BALB/c mouse xenografted with SU-DHL-6 cells assessed as weight loss at 80 mg/kg, ip administered for 6 times weekly for 3 weeks; type: organism-based; settings: in vivo, 504 h
[33] = biological target: T4, Protein cereblon/Histone-lysine N-methyltransferase EZH2 (Homo sapiens) (UniProt Q15910+Q96SW2); assay: Protac activity at CRBN E3 ligase/EZH2 in human 22Rv1 cells assessed as degradation of EZH2 at 0.3 uM incubated for 48 hrs by Western blot analysis; type: cell-based
T4 sequence (Q15910 whole entry, looked up): as above
T4 sequence (Q96SW2 whole entry, looked up): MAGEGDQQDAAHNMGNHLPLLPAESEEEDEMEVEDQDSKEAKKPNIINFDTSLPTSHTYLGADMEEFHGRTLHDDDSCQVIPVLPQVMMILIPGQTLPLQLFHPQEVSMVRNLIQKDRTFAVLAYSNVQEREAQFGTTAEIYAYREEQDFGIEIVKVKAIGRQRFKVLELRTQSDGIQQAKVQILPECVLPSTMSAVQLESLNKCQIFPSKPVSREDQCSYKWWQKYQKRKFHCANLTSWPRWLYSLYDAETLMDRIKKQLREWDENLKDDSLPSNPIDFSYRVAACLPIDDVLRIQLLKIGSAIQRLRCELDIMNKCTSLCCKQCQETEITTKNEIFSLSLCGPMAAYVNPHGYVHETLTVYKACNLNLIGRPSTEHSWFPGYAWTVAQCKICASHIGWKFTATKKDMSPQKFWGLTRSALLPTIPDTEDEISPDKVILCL

[34] = biological target: T4, Protein cereblon/Histone-lysine N-methyltransferase EZH2 (Homo sapiens); assay: Protac activity at CRBN E3 ligase/EZH2 in human 22Rv1 cells assessed as degradation of EZH2 at 1 uM incubated for 48 hrs by Western blot analysis; type: cell-based
[35] = biological target: T4, Protein cereblon/Histone-lysine N-methyltransferase EZH2 (Homo sapiens); assay: Protac activity at CRBN E3 ligase/EZH2 in human 22Rv1 cells assessed as degradation of EZH2 at 3 uM incubated for 48 hrs by Western blot analysis; type: cell-based
[36] = biological target: T4, Protein cereblon/Histone-lysine N-methyltransferase EZH2 (Homo sapiens); assay: Protac activity at CRBN E3 ligase/EZH2 in human 22Rv1 cells assessed as inhibition of H3K27me3 at 0.3 uM incubated for 48 hrs by Western blot analysis; type: cell-based
[37] = biological target: T4, Protein cereblon/Histone-lysine N-methyltransferase EZH2 (Homo sapiens); assay: Protac activity at CRBN E3 ligase/EZH2 in human 22Rv1 cells assessed as inhibition of H3K27me3 at 1 uM incubated for 48 hrs by Western blot analysis; type: cell-based
[38] = biological target: T4, Protein cereblon/Histone-lysine N-methyltransferase EZH2 (Homo sapiens); assay: Protac activity at CRBN E3 ligase/EZH2 in human 22Rv1 cells assessed as inhibition of H3K27me3 at 3 uM incubated for 48 hrs by Western blot analysis; type: cell-based

| Activity [2] | Activity [3] | Activity [4] | Activity [9] | Activity [16] | Activity [21] | Activity [33] | Activity [34] | Activity [35] | Activity [36] | Activity [37] | Activity [38] | SMILES | Activity (SU-DHL-2) | Activity (SUD4) | Activity (SU-DHL-6 [10]) | Activity (SU-DHL-6 [12]) | Activity (SU-DHL-6 [13]) | Activity (SU-DHL-6 [14]) | Activity (SU-DHL-6 [15]) | Activity (SU-DHL-6 [20]) | also measured |
| --- | --- | --- | --- | --- | --- | --- | --- | --- | --- | --- | --- | --- | --- | --- | --- | --- | --- | --- | --- | --- | --- |
| Active | Dose-Dependent Effect | inactive | Active | Dose-Dependent Effect | Active |  |  |  |  |  |  | CCN(c1cc(-c2ccc(OCCOCCOCC(=O)N[C@H](C(=O)N3C[C@H](O)C[C@H]3C(=O)NCc3ccc(-c4scnc4C)cc3)C(C)(C)C)cc2)cc(C(=O)NCc2c(C)cc(C)[nH]c2=O)c1C)C1CCOCC1 | Active | Active | Active | Dose-Dependent Effect | Active | Active | Dose-Dependent Effect | Dose-Dependent Effect | Activity [1]: inactive; Emax [5]: 80%; Activity [6]: Active; Activity [7]: Active; Activity [8]: inactive; Activity [11]: Active; Activity [17]: Active; Activity [18]: Active; Activity [19]: Active |
| Active | Dose-Dependent Effect | inactive | Active | Dose-Dependent Effect | Active |  |  |  |  |  |  | CCN(c1cc(-c2ccc(OCCCOCC(=O)N[C@H](C(=O)N3C[C@H](O)C[C@H]3C(=O)NCc3ccc(-c4scnc4C)cc3)C(C)(C)C)cc2)cc(C(=O)NCc2c(C)cc(C)[nH]c2=O)c1C)C1CCOCC1 | Active | Active | Active | Dose-Dependent Effect | Active | Active | Dose-Dependent Effect | Dose-Dependent Effect | Activity (SU-DHL-6 [22]): Active; Activity (SU-DHL-6 [23]): Active; Activity (SU-DHL-6 [24]): Active; Activity (SU-DHL-6 [25]): Active; Activity (SU-DHL-6 [26]): Active; Activity (DLBCL [27]): Dose-Dependent Effect; Activity (DLBCL [28]): Active; Activity (DLBCL [29]): Active; Activity (DLBCL [30]): Active; Activity (SU-DHL-6 [31]): inactive; Activity [32]: Non-Toxic |
| inactive |  |  |  |  | inactive |  |  |  |  |  |  | CCN(c1cc(-c2ccc(C(=O)NCCOCCOCCOCCOCC(=O)N[C@H](C(=O)N3C[C@H](O)C[C@H]3C(=O)NCc3ccc(-c4scnc4C)cc3)C(C)(C)C)cc2)cc(C(=O)NCc2c(C)cc(C)[nH]c2=O)c1C)C1CCOCC1 |  |  |  |  |  |  |  |  |  |
|  |  |  |  |  |  | inactive | inactive | inactive | inactive | inactive | Active | CCN(c1cc(-c2ccc(C(=O)NCCCCCCCCNC(=O)COc3cccc4c3C(=O)N(C3CCC(=O)NC3=O)C4=O)cc2)cc(C(=O)NCc2c(C)cc(C)[nH]c2=O)c1C)C1CCOCC1 (centres undefined) |  |  |  |  |  |  |  |  |  |
|  |  |  |  |  |  | inactive | inactive | inactive | inactive | inactive | inactive | CCN(c1cc(-c2ccc(C(=O)NCCOCCOCCOc3cccc4c3C(=O)N(C3CCC(=O)NC3=O)C4=O)cc2)cc(C(=O)NCc2c(C)cc(C)[nH]c2=O)c1C)C1CCOCC1 (centres undefined) |  |  |  |  |  |  |  |  |  |
| inactive |  |  |  |  | inactive |  |  |  |  |  |  | CCN(c1cc(-c2ccc(C(=O)NCCOCCOCCOCC(=O)N[C@H](C(=O)N3C[C@H](O)C[C@H]3C(=O)NCc3ccc(-c4scnc4C)cc3)C(C)(C)C)cc2)cc(C(=O)NCc2c(C)cc(C)[nH]c2=O)c1C)C1CCOCC1 |  |  |  |  |  |  |  |  |  |
